In patent publication US20050112573A1, “Method of detecting toxic substance” (priority 2001, published 2005):

Test system: yeast genes (level of expressed mRNA)
Assay: DNA chip analysis of expressed mRNA of yeast genes after 2 h culture with a toxic chemical substance
Assay type: cell-based, Saccharomyces cerevisiae S288C
Description: Yeast (Saccharomyces cerevtisiae S288C (α SUC2mal mel gap2 CUP1)) were cultured at 25° C. on YPD medium (yeast extract 1%, polypepton 2%, glucose 2%). One of toxic chemical substances was added to the cell at logarithmic growth phase, and the cell was further cultured for two hours. Cell was cultured without any chemical substance in the same condition, and was used as control. Concentrations of the chemical substances were defined to inhibit the growth of the yeast but not lead to death.
After the completion of cultivation, the culture was centrifuged to collect the cells. To the cells, sodium acetate buffer (50 mM sodium acetate, 10 mM EDTA, 1% SDS) was added, and the mixture was shaken at 65° C. for five minutes, followed by returning to room temperature, and obtaining the supernatant, which procedure was repeated two times. To the supernatant, ½ amount of a solution of phenol/chloroform was added, and the mixture was centrifuged to give a supernatant, which was added with an equal amount of chloroform, and the mixture was centrifuged to give a supernatant. To the supernatant, an equal amount of isopropanol containing 0.3 M sodium acetate was added, and the mixture was allowed to stand at room temperature for 30 minutes, after which the mixture was centrifuged to give a sediment of the whole RNAs. Seventy % ethanol was added to the sediment, and the mixture was again centrifuged to give a sediment, which was then dried and dissolved in water. mRNA was isolated from the whole RNAs as followings. In view of the fact that a poly A chain is attached to the 3′ terminus of mRNA, a polynucleotide having a poly T structure which was immobilized on the surface of latex beads was used to trap the mRNA, and then the mRNA was washed and eluted with spine column (Oligotex-dT30<Super>mRNA Purification Kit, Takara). Reverse transcription of the mRNA was conducted with a reverse transcriptase (Super Script II Reverse Transcriptase; catalogue No. 18064-014, GibcoBRL) using fluorescence-labeled nucleotides to give cDNAs that were introduced with Cy3-dUTP or Cy5-dUTP during the reverse transcription.
The labeled cDNAs were dissolved in TE buffer (10 mM Tris-HCl/1 mM EDTA, pH8.0), and the solution was dropped on the DNA chip containing the whole genes of yeast (DNA Chip Research Inc. Japan) so that the cDNAs were hybridized on the DNA chip at 65° C. for over 12 hours. The fluoresces intensity of the DNA chip was read with a scanner, and the ratio relative to the fluorescence intensity resulting from the absence of chemical substance was estimated as the following, which is shown in Tables 1 to 9: [formula]
In the Tables, “Intensity” indicated in the rightmost column is a value of the level of expressed mRNA of each gene in control cells as divided by the average level of the expressions of the whole genes.

Which “The level of expressed mRNA in the presence of chemical substance/absence: YGR293C” value (gene YGR293C) does the source give for CCCCCCCCCCCCOS(=O)(=O)[O-].[Na+] [(18), sodium lauryl sulfate] here?
The value was 0.9.

And the “The level of expressed mRNA in the presence of chemical substance/absence: YHL006C” value (gene YHL006C)?
The value was 1.0.

What about the “The level of expressed mRNA in the presence of chemical substance/absence: YHL021C” value (gene YHL021C) of the same compound?
The value was 3.6.

What about the “The level of expressed mRNA in the presence of chemical substance/absence: YHL037C” value (gene YHL037C) of the same compound?
The value was 0.9.

And the “level of expressed mRNA in the presence of chemical substance/in its absence” value (from here on “level … of chemical substance/in its absence”) (gene YHR037W)?
The value was 1.4.

What about the “The level of expressed mRNA in the presence of chemical substance/absence: YHR083W” value (gene YHR083W) of the same compound?
Its value is 1.0.

What about the “level … of chemical substance/in its absence” value (gene YHR092C) of the same compound?
Its value is 1.3.

And the “The level of expressed mRNA in the presence of chemical substance/absence: YHR095W” value (gene YHR095W)?
The value was 0.7.

And the “The level of expressed mRNA in the presence of chemical substance/absence: YHR105W” value (gene YHR105W)?
The value was 0.9.

What about the “The level of expressed mRNA in the presence of chemical substance/absence: YHR134W” value (gene YHR134W) of the same compound?
Its value is 1.3.

And the “level … of chemical substance/in its absence” value (gene YHR137W)?
The value was 1.3.

What about the “The level of expressed mRNA in the presence of chemical substance/absence: YHR180W” value (gene YHR180W) of the same compound?
The value was 1.0.

And the “The level of expressed mRNA in the presence of chemical substance/absence: YHR181W” value (gene YHR181W)?
The value was 0.9.

And the “level … of chemical substance/in its absence” value (gene YHR190W)?
Its value is 1.8.

What about the “level … of chemical substance/in its absence” value (gene YIL033C) of the same compound?
Its value is 1.2.

And the “The level of expressed mRNA in the presence of chemical substance/absence: YIL108W” value (gene YIL108W)?
The value was 0.7.

And the “The level of expressed mRNA in the presence of chemical substance/absence: YIL127C” value (gene YIL127C)?
Its value is 0.6.

And the “level … of chemical substance/in its absence” value (gene YIL154C)?
Its value is 1.0.

And the “The level of expressed mRNA in the presence of chemical substance/absence: YIL165C” value (gene YIL165C)?
The value was 1.3.

What about the “level … of chemical substance/in its absence” value (gene YIL167W) of the same compound?
The value was 0.8.

What about the “level … of chemical substance/in its absence” value (gene YIR035C) of the same compound?
The value was 0.9.

What about the “The level of expressed mRNA in the presence of chemical substance/absence: YJL017W” value (gene YJL017W) of the same compound?
Its value is 1.0.

And the “The level of expressed mRNA in the presence of chemical substance/absence: YJL032W” value (gene YJL032W)?
Its value is 1.1.

What about the “The level of expressed mRNA in the presence of chemical substance/absence: YJL037W” value (gene YJL037W) of the same compound?
The value was 0.9.

And the “The level of expressed mRNA in the presence of chemical substance/absence: YJL049W” value (gene YJL049W)?
Its value is 1.1.

And the “level … of chemical substance/in its absence” value (gene YJL088W)?
The value was 0.9.

What about the “The level of expressed mRNA in the presence of chemical substance/absence: YJL097W” value (gene YJL097W) of the same compound?
Its value is 1.1.

And the “level … of chemical substance/in its absence” value (gene YJL132W)?
The value was 1.5.

What about the “level … of chemical substance/in its absence” value (gene YJL196C) of the same compound?
The value was 1.9.

What about the “The level of expressed mRNA in the presence of chemical substance/absence: YJR030C” value (gene YJR030C) of the same compound?
The value was 0.9.

And the “The level of expressed mRNA in the presence of chemical substance/absence: YJR044C” value (gene YJR044C)?
Its value is 1.6.

What about the “level … of chemical substance/in its absence” value (gene YJR142W) of the same compound?
Its value is 1.4.

What about the “level … of chemical substance/in its absence” value (gene YJR148W) of the same compound?
The value was 1.7.

And the “level … of chemical substance/in its absence” value (gene YJR159W)?
Its value is 2.3.

What about the “The level of expressed mRNA in the presence of chemical substance/absence: YKL051W” value (gene YKL051W) of the same compound?
Its value is 1.4.

What about the “The level of expressed mRNA in the presence of chemical substance/absence: YKL059C” value (gene YKL059C) of the same compound?
The value was 0.9.

What about the “level … of chemical substance/in its absence” value (gene YKL067W) of the same compound?
The value was 3.2.

What about the “The level of expressed mRNA in the presence of chemical substance/absence: YKL090W” value (gene YKL090W) of the same compound?
The value was 1.0.

And the “The level of expressed mRNA in the presence of chemical substance/absence: YKL094W” value (gene YKL094W)?
The value was 1.9.

What about the “The level of expressed mRNA in the presence of chemical substance/absence: YKL097C” value (gene YKL097C) of the same compound?
Its value is 0.5.

And the “The level of expressed mRNA in the presence of chemical substance/absence: YKL100C” value (gene YKL100C)?
Its value is 1.5.

And the “level … of chemical substance/in its absence” value (gene YKR039W)?
Its value is 1.1.

And the “The level of expressed mRNA in the presence of chemical substance/absence: YKR040C” value (gene YKR040C)?
The value was 0.8.

And the “The level of expressed mRNA in the presence of chemical substance/absence: YLR097C” value (gene YLR097C)?
Its value is 1.7.

And the “level … of chemical substance/in its absence” value (gene YLR142W)?
Its value is 3.2.

What about the “level … of chemical substance/in its absence” value (gene YLR180W) of the same compound?
The value was 0.7.

What about the “The level of expressed mRNA in the presence of chemical substance/absence: YLR226W” value (gene YLR226W) of the same compound?
Its value is 1.0.

And the “level … of chemical substance/in its absence” value (gene YLR273C)?
The value was 1.0.

And the “level … of chemical substance/in its absence” value (gene YLR300W)?
The value was 0.5.

And the “level … of chemical substance/in its absence” value (gene YLR307W)?
The value was 1.0.

What about the “The level of expressed mRNA in the presence of chemical substance/absence: YLR338W” value (gene YLR338W) of the same compound?
Its value is 0.6.

What about the “The level of expressed mRNA in the presence of chemical substance/absence: YLR339C” value (gene YLR339C) of the same compound?
The value was 0.6.

And the “The level of expressed mRNA in the presence of chemical substance/absence: YLR392C” value (gene YLR392C)?
The value was 1.6.

And the “The level of expressed mRNA in the presence of chemical substance/absence: YLR415C” value (gene YLR415C)?
The value was 1.0.

What about the “The level of expressed mRNA in the presence of chemical substance/absence: YLR427W” value (gene YLR427W) of the same compound?
The value was 1.0.

What about the “The level of expressed mRNA in the presence of chemical substance/absence: YML013W” value (gene YML013W) of the same compound?
Its value is 0.8.

What about the “The level of expressed mRNA in the presence of chemical substance/absence: YML029W” value (gene YML029W) of the same compound?
Its value is 1.0.
